The values that follow come from patent publication US20230220224A1, “AQUEOUS DISPERSION AND IMAGE RECORDING METHOD” (FUJIFILM CORPORATION, priority 2020, published 2023).

The conditions of the data set: in water at 20° C.

Regarding `CC(C)NC(C)C` [DIPA, diisopropylamine], the “Neutralizer Solubility in water” value was determined as 10 g/100 mL.

On to `CN1C(C)(C)CC(O)CC1(C)C` [Example 4-OH-PMP, 4-hydroxy-1,2,2,6,6-pentamethylpiperidine], for which the “Neutralizer Solubility in water” value is on record as 4.8 g/100 mL.
